US12655116B2, “Substituted isophthalic acid diamides” (Bayer Aktiengesellschaft, priority 2020, dated 2026)

Tests used:
[1] = test system: ABUTH; assay: Pre-emergence herbicidal action against ABUTH; assay type: in vivo, Abutilon theophrasti; details: for Pre-emergence action against ABUTH (herbicidal activity): 80 g/ha, scored visually after 3 weeks vs untreated controls (100% = plants have died, 0% = like control plants); for Pre-emergence action against ABUTH (herbicidal activity in percent): dosage 20 g/ha, scored visually after 3 weeks vs untreated controls, 100% = plants have died, 0% = like control plants
In short: (§1)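 Seeds sown in sandy loam, soil-covered; compound sprayed on soil surface pre-emergence. Application: WP/EC, 600–800 l/ha, 0.2% wetting agent. Readout: visual % damage at 3 weeks.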

[2] = test system: ALOMY; assay: Pre-emergence herbicidal action against ALOMY; assay type: in vivo, Alopecurus myosuroides; details: 80 g/ha, pre-emergence, scored visually after 3 weeks vs untreated controls (100% = plants have died, 0% = like control plants)
In short: as §1

[3] = test system: AMARE; assay: Pre-emergence herbicidal action against AMARE; assay type: in vivo, Amaranthus retroflexus
In short: as §1

[4] = test system: AVEFA; assay: Pre-emergence herbicidal action against AVEFA; assay type: in vivo, Avena fatua; details: 80 g/ha, pre-emergence
In short: as §1

[5] = test system: MATIN; assay: Pre-emergence herbicidal action against MATIN; assay type: in vivo, Matricaria inodora
In short: as §1

[6] = test system: POLCO; assay: Pre-emergence herbicidal action against POLCO; assay type: in vivo, Polygonum convolvulus
In short: as §1

[7] = test system: SETVI; assay: Pre-emergence herbicidal action against SETVI; assay type: in vivo, Setaria viridis; details: dosage 80 g/ha
In short: as §1

[8] = test system: STEME; assay: Pre-emergence herbicidal action against STEME; assay type: in vivo, Stellaria media
In short: as §1

[9] = test system: VERPE; assay: Pre-emergence herbicidal action against VERPE; assay type: in vivo, Veronica persica; details: dosage 80 g/ha
In short: as §1

[10] = test system: VIOTR; assay: Pre-emergence herbicidal action against VIOTR; assay type: in vivo, Viola tricolor
In short: as §1

[11] = test system: DIGSA; assay: Pre-emergence herbicidal action against DIGSA; assay type: in vivo, Digitaria sanguinalis
In short: as §1

[12] = test system: ABUTH; assay: Post-emergence herbicidal action against ABUTH; assay type: in vivo, Abutilon theophrasti; details: visual assessment about 3 weeks after treatment vs untreated controls
In short: (§2)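 Percent herbicidal action is rated by eye about 3 weeks after treatment against untreated controls, where 100% means dead plants and 0% means like controls. Plants in sandy loam are sprayed on green parts at the one-leaf stage with aqueous WP or EC preparations at 600 to 800 l/ha plus 0.2% wetting agent.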

[13] = test system: AMARE; assay: Post-emergence herbicidal action against AMARE; assay type: in vivo, Amaranthus retroflexus; details: 20 g/ha, visual assessment about 3 weeks after treatment, 100% = plants have died, 0% = like control plants
In short: as §2

[14] = test system: AVEFA; assay: Post-emergence herbicidal action against AVEFA; assay type: in vivo, Avena fatua; details: 20 g/ha, visual assessment about 3 weeks after treatment, 100% = plants have died, 0% = like control plants
In short: as §2

[15] = test system: ECHCG; assay: Post-emergence herbicidal action against ECHCG; assay type: in vivo, Echinochloa crus-galli
In short: as §2

[16] = test system: MATIN; assay: Post-emergence herbicidal action against MATIN; assay type: in vivo, Matricaria inodora
In short: as §2

[17] = test system: PHBPU; assay: Post-emergence herbicidal action against PHBPU; assay type: in vivo, Pharbitis purpurea
In short: as §2

[18] = test system: STEME; assay: Post-emergence herbicidal action against STEME; assay type: in vivo, Stellaria media
In short: as §2

[19] = test system: VERPE; assay: Post-emergence herbicidal action against VERPE; assay type: in vivo, Veronica persica; details: 20 g/ha
In short: as §2

[20] = test system: VIOTR; assay: Post-emergence herbicidal action against VIOTR; assay type: in vivo, Viola tricolor; details: 20 g/ha
In short: as §2

[21] = test system: ECHCG; assay: Pre-emergence herbicidal action against ECHCG; assay type: in vivo, Echinochloa crus-galli; details: 80 g/ha
In short: as §1

[22] = test system: SETVI; assay: Post-emergence herbicidal action against SETVI; assay type: in vivo, Setaria viridis
In short: as §2

[23] = test system: DIGSA; assay: Post-emergence herbicidal action against DIGSA; assay type: in vivo, Digitaria sanguinalis
In short: as §2

[24] = 20 g/ha, scored visually after 3 weeks vs untreated controls, 100% = plants have died, 0% = like control plants
[25] = 80 g/ha, scored visually after 3 weeks vs untreated controls (100% = plants have died, 0% = like control plants)

CCn1nnnc1NC(=O)c1ccc(C(F)F)c(C(=O)NC)c1C [Example 2-44]
Pre-emergence action against ABUTH (herbicidal activity) [1]: 100%
Pre-emergence action against ABUTH (herbicidal activity in percent) [1]: 100%
Pre-emergence action against ALOMY (herbicidal activity) [2]: 80%
Pre-emergence action against AMARE in % [3, 24]: 100%
Pre-emergence action against AMARE in % [3, 25]: 100%
Pre-emergence action against AVEFA in % [4]: 90%
Pre-emergence action against MATIN in % ([5]; dosage 20 g/ha): 90%
Pre-emergence action against MATIN in % ([5]; dosage 80 g/ha): 100%
Pre-emergence action against POLCO in % ([6]; dosage 20 g/ha): 80%
Pre-emergence action against POLCO in % ([6]; dosage 80 g/ha): 90%
Pre-emergence action against SETVI in % [7]: 100%
Pre-emergence action against STEME in % ([8]; dosage 20 g/ha): 90%
Pre-emergence action against STEME in % ([8]; dosage 80 g/ha): 100%
Pre-emergence action against VERPE in % [9]: 90%
Pre-emergence action against VIOTR in % ([10]; dosage 20 g/ha): 100%
Pre-emergence action against VIOTR in % ([10]; dosage 80 g/ha): 100%
Pre-emergence action against DIGSA in % ([11]; dosage 20 g/ha): 100%
Pre-emergence action against DIGSA in % ([11]; dosage 80 g/ha): 100%
Post-emergence action against ABUTH in % ([12]; dosage 5 g/ha): 80%
Post-emergence action against ABUTH in % ([12]; dosage 20 g/ha): 90%
Post-emergence action at 20 g/ha against AMARE in % [13]: 100%
Post-emergence action at 20 g/ha against AVEFA in % [14]: 80%
Post-emergence action against ECHCG in % ([15]; dosage 20 g/ha): 80%
Post-emergence action against MATIN in % ([16]; dosage 5 g/ha): 80%
Post-emergence action against MATIN in % ([16]; dosage 20 g/ha): 80%
Post-emergence action against PHBPU in % ([17]; dosage 5 g/ha): 80%
Post-emergence action against PHBPU in % ([17]; dosage 20 g/ha): 80%
Post-emergence action against STEME in % ([18]; 20 g/ha): 80%
Post-emergence action against VERPE in % [19]: 80%
Post-emergence action against VIOTR in % [20]: 80%

CNC(=O)c1c(C(F)F)ccc(C(=O)Nc2nnco2)c1SC [Example 5-74]
Pre-emergence action against ABUTH (herbicidal activity) [1]: 100%
Pre-emergence action against ABUTH (herbicidal activity in percent) [1]: 80%
Pre-emergence action against AMARE in % [3, 24]: 100%
Pre-emergence action against AMARE in % [3, 25]: 100%
Pre-emergence action against AVEFA in % [4]: 80%
Pre-emergence action against ECHCG in % [21]: 90%
Pre-emergence action against MATIN in % ([5]; dosage 20 g/ha): 80%
Pre-emergence action against MATIN in % ([5]; dosage 80 g/ha): 90%
Pre-emergence action against POLCO in % ([6]; dosage 20 g/ha): 80%
Pre-emergence action against POLCO in % ([6]; dosage 80 g/ha): 80%
Pre-emergence action against SETVI in % [7]: 90%
Pre-emergence action against STEME in % ([8]; dosage 20 g/ha): 90%
Pre-emergence action against STEME in % ([8]; dosage 80 g/ha): 100%
Pre-emergence action against VIOTR in % ([10]; dosage 80 g/ha): 100%
Pre-emergence action against DIGSA in % ([11]; dosage 20 g/ha): 90%
Pre-emergence action against DIGSA in % ([11]; dosage 80 g/ha): 100%
Post-emergence action against ABUTH in % ([12]; dosage 5 g/ha): 90%
Post-emergence action against ABUTH in % ([12]; dosage 20 g/ha): 90%
Post-emergence action at 20 g/ha against AMARE in % [13]: 100%
Post-emergence action at 20 g/ha against AVEFA in % [14]: 80%
Post-emergence action against ECHCG in % ([15]; dosage 5 g/ha): 80%
Post-emergence action against ECHCG in % ([15]; dosage 20 g/ha): 80%
Post-emergence action against PHBPU in % ([17]; dosage 20 g/ha): 100%
Post-emergence action against SETVI in % ([22]; dosage 5 g/ha): 80%
Post-emergence action against SETVI in % ([22]; dosage 20 g/ha): 90%
Post-emergence action against STEME in % ([18]; 20 g/ha): 90%
Post-emergence action against STEME in % ([18]; dosage 5 g/ha): 80%
Post-emergence action against DIGSA in % ([23]; 5 g/ha): 90%
Post-emergence action against DIGSA ([23]; 20 g/ha): 90%
